Measured values reported in US9102648B1, “Bioavailable diacylhydrazine ligands for modulating the expression of exogenous genes via an ecdysone receptor complex” (Intrexon Corporation, priority 2003, dated 2015).

Legend:
[1] = molecular target: T1, Bombyx mori EcR (VP16 fusion, CVBE switch construct) (Bombyx mori, UniProt P49881); test: Z3 Assay (HEK-293 cells with CVBE and 6XEcRE LacZ, β-galactosidase reporter); settings: for Fold Induction, Z3 Assay, 3.3 uM: 3.3 uM ligand; for Fold Induction, Z3 Assay, 3.3 uM / Fold Induction, Z3 Assay, 33 uM: ligand treated / DMSO treated cells; for Fold Induction, Z3 Assay, 3.3 uM / Fold Induction, Z3 Assay, 33 uM / EC50: average of two wells; for Fold Induction, Z3 Assay, 33 uM: 33 uM ligand; for Z3 assay Rel Max FI: maximum fold induction at any concentration relative to that of GS-E ligand; for Z3 assay Rel Max FI / EC50: HEK-293 Z3 cells; for EC50: read-out: Z3 assay EC50, β-galactosidase reporter
T1 sequence (P49881 86-606): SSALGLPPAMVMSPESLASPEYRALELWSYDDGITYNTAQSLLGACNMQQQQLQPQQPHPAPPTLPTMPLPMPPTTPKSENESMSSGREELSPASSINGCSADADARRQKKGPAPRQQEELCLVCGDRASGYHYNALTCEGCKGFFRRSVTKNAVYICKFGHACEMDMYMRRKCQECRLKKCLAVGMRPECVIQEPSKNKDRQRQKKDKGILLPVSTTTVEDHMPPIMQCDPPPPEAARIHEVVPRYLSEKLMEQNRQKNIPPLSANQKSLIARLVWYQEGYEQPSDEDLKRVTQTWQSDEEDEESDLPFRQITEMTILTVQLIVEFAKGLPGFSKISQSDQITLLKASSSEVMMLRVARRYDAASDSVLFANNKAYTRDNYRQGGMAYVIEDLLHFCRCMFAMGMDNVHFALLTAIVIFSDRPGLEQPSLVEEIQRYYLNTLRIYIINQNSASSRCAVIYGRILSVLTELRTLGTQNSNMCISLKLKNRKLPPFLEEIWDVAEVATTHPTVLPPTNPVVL
T1 sequence (P19793 1-462 partner): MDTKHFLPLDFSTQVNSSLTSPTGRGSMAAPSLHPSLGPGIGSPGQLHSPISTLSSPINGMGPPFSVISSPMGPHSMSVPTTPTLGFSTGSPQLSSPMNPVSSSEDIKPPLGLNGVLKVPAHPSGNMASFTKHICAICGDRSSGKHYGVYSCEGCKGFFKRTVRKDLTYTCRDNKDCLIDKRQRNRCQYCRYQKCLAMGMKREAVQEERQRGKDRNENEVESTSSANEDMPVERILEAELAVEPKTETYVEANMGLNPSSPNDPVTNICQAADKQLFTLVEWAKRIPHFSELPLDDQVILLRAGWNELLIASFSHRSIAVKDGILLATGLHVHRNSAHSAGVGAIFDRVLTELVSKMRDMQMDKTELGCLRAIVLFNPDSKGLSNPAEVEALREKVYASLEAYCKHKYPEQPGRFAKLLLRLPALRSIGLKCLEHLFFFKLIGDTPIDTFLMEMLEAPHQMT

[2] = molecular target: GAL4 DBD-CfEcR(DEF)/VP16AD-MmRXRE (Choristoneura fumiferana, UniProt O77240); test: 13B3 Assay (CHO stable cell line, luciferase reporter); settings: for Fold Induction, 13B3 Assay, 3.3 uM: 3.3 uM ligand; for Fold Induction, 13B3 Assay, 3.3 uM / Fold Induction, 13B3 Assay, 33 uM: RLU ligand treated / RLU DMSO treated cells; for Fold Induction, 13B3 Assay, 3.3 uM / Fold Induction, 13B3 Assay, 33 uM / EC50: average of two wells; for Fold Induction, 13B3 Assay, 33 uM: 33 uM ligand; for 13B3 assay Rel Max FI: maximum fold induction at any concentration relative to that of GS-E ligand, CHO 13B3 cells; for EC50: read-out: 13B3 EC50, CHO 13B3 stable cell line, luciferase reporter, 48 h
Procedure, shortened: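 Ligands dosed at 8 levels from 33 to 0.01 μM (DMSO stocks diluted 300-fold) onto the 13B3 CHO line carrying GAL4-DBD/CfEcR-DEF, VP16/MmRXR-DE and a GAL4-responsive luciferase gene.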

COc1cc(C)ccc1C(=O)N(NC(=O)c1cccc(OC)c1C)C(C)(C)C [RG-100769]
Fold Induction, Z3 Assay, 3.3 uM [1]: 1096
Fold Induction, Z3 Assay, 33 uM [1]: 542
Z3 assay Rel Max FI [1]: 1.109
EC50 [1]: 219 nM
Fold Induction, 13B3 Assay, 3.3 uM [2]: 1014
Fold Induction, 13B3 Assay, 33 uM [2]: 386
13B3 assay Rel Max FI [2]: 0.685
EC50 [2]: 337 nM

CCc1cccc(C(=O)NN(C(=O)c2cc(C)cc(C)c2)C(C)(C)C)c1C [RG-101691]
Fold Induction, Z3 Assay, 3.3 uM [1]: 654
Fold Induction, Z3 Assay, 33 uM [1]: 1089
Z3 assay Rel Max FI [1]: 1.068
EC50 [1]: 174 nM
Fold Induction, 13B3 Assay, 3.3 uM [2]: 5245
Fold Induction, 13B3 Assay, 33 uM [2]: 630
13B3 assay Rel Max FI [2]: 0.918
EC50 [2]: 406 nM

CCc1c(OC)cccc1C(=O)NN(C(=O)c1ccc(Cl)cc1OC)C(C)(C)C [RG-101218]
Fold Induction, Z3 Assay, 3.3 uM [1]: 886
Fold Induction, Z3 Assay, 33 uM [1]: 398
Z3 assay Rel Max FI [1]: 0.998
EC50 [1]: 316 nM
Fold Induction, 13B3 Assay, 33 uM [2]: 1983

COc1cccc(C(=O)NN(C(=O)c2cc(Cl)cc(Br)c2)C(C)(C)C)c1C [RG-101408]
Fold Induction, Z3 Assay, 3.3 uM [1]: 780
Fold Induction, Z3 Assay, 33 uM [1]: 398
Z3 assay Rel Max FI [1]: 1.118
EC50 [1]: 148 nM
Fold Induction, 13B3 Assay, 33 uM [2]: 326

CCc1ccc(C(=O)NN(C(=O)c2ccccc2CC)C(C)(C)C)cc1 [RG-102592]
Fold Induction, Z3 Assay, 3.3 uM [1]: 746
Fold Induction, Z3 Assay, 33 uM [1]: 574
Z3 assay Rel Max FI [1]: 0.699
EC50 [1]: 3890 nM
Fold Induction, 13B3 Assay, 3.3 uM [2]: 194
Fold Induction, 13B3 Assay, 33 uM [2]: 909
13B3 assay Rel Max FI [2]: 0.684
EC50 [2]: 4920 nM

Cc1cc(C)cc(C(=O)N(NC(=O)c2ccc(CC#N)cc2)C(C)(C)C)c1 [RG-100875]
Fold Induction, Z3 Assay, 3.3 uM [1]: 1006
Fold Induction, Z3 Assay, 33 uM [1]: 1081
Z3 assay Rel Max FI [1]: 0.818
EC50 [1]: 2040 nM
Fold Induction, 13B3 Assay, 3.3 uM [2]: 23
Fold Induction, 13B3 Assay, 33 uM [2]: 1143
13B3 assay Rel Max FI [2]: 0.853
EC50 [2]: 4020 nM

CCc1ccc(C(=O)NN(C(=O)c2cc(C)cc(C)c2)C(C)(C)C)cc1Cl [RG-101864]
Fold Induction, Z3 Assay, 3.3 uM [1]: 796
Fold Induction, Z3 Assay, 33 uM [1]: 494
Z3 assay Rel Max FI [1]: 1.075
EC50 [1]: 245 nM
Fold Induction, 13B3 Assay, 3.3 uM [2]: 5959
Fold Induction, 13B3 Assay, 33 uM [2]: 349
13B3 assay Rel Max FI [2]: 0.460
EC50 [2]: 288 nM

C=Cc1c(OC)cccc1C(=O)NN(C(=O)c1cc(C)cc(C)c1)C(C)(C)C [RG-102021]
Fold Induction, Z3 Assay, 3.3 uM [1]: 417
Z3 assay Rel Max FI [1]: 0.920
EC50 [1]: 513 nM
Fold Induction, 13B3 Assay, 3.3 uM [2]: 4081
13B3 assay Rel Max FI [2]: 1.136
EC50 [2]: 4040 nM

CC(C)(C)N(NC(=O)c1ccc2c(c1)OCO2)C(=O)c1ccc(F)cc1Cl [RG-101048]
Fold Induction, Z3 Assay, 33 uM [1]: 283
EC50 [1]: 19100 nM
Fold Induction, 13B3 Assay, 33 uM [2]: 701

Cc1cc(C)cc(C(=O)N(NC(=O)c2cccc(OC(F)(F)F)c2C)C(C)(C)C)c1 [RG-101692]
Fold Induction, Z3 Assay, 3.3 uM [1]: 435
Fold Induction, Z3 Assay, 33 uM [1]: 860
Z3 assay Rel Max FI [1]: 0.975
EC50 [1]: 309 nM
Fold Induction, 13B3 Assay, 3.3 uM [2]: 4180
Fold Induction, 13B3 Assay, 33 uM [2]: 170
13B3 assay Rel Max FI [2]: 1.004
EC50 [2]: 728 nM
